Measured values taken from patent US20210130417A1, “SYSTEMS AND METHODS FOR DESIGNING SYNTHETIC ANTIMICROBIAL PEPTIDES” (University of Notre Dame du Lac, priority 2017, published 2021).
≈ marks a conversion by molar mass, not a printed value. Residues, ends and D or L forms follow the SMILES beside them.

Columns and labels:
[1] = system: E. coli BL-21; assay type: cell-based, Escherichia coli
Experimental: The E. coli, P. aeruginosa, and P. syringae bacterial strains were routinely grown in LB broth (EMD Chemicals, Gibbstown, N.J.). […] All other bacteria were grown at 37° C. with agitation.
Overnight bacterial cultures were diluted to an OD of 0.01. μL of diluted culture and 10 μL of 10× peptide or vehicle were added to the wells of a 96-well microtiter plate for a final 1× concentration. Bacteria were grown in desired growth conditions in a Synergy H1 Microplate Reader (Biotek, Winooski, Vt.). For MIC, serial two-fold dilutions of the peptides were used. MIC was determined as the concentration of peptide that prevented overnight growth as indicated by OD 600.

[2] = system: Pseudomonas aeruginosa PAO1
Text: (§1) E. coli BL-21 frozen stock culture was purchased from Thermo Fischer. Pseudomonas aeruginosa PAO1 frozen stock culture was obtained from the Shrout Laboratory at the University of Notre Dame. Pseudomonas syringae frozen stock culture was obtained from the Innes Laboratory at Indiana University. Xanthomonas axonopodis pathovar Starr and Garces pathovar phaseoli (ATCC 9563) frozen stock culture was purchased from the ATCC. Streptococcus pyogenes M1T1 frozen stock culture was obtained from the lab of Dr. Victor Nizet, University of California San Diego. A methicillin resistant Staphylococcus aureus JKD frozen stock culture was obtained from the lab of Dr. Timothy Stinear, University of Melbourne.
(§2) The E. coli, P. aeruginosa, and P. syringae bacterial strains were routinely grown in LB broth (EMD Chemicals, Gibbstown, N.J.). S. aureus and S. pyogenes were routinely grown in Todd Hewitt broth (Neogen Corporation, Lansing, Mich.). X. axonopodis was routinely grown in Nutrient Broth (Sigma-Aldrich Co., St. Louis, Mo.). P. syringae and X. axonopodis were grown at room temperature without agitation. All other bacteria were grown at 37° C. with agitation.
(§3) Overnight bacterial cultures were diluted to an OD of 0.01. […] and 10 μL of 10× peptide or vehicle were added to the wells of a 96-well microtiter plate for a final 1× concentration. Bacteria were grown in desired growth conditions in a Synergy H1 Microplate Reader (Biotek, Winooski, Vt.). For MIC, serial two-fold dilutions of the peptides were used. MIC was determined as the concentration of peptide that prevented overnight growth as indicated by OD 600. For peptide screening, 8 μM or 4 μM peptide was screened against various bacteria. Peptides that inhibited overnight growth were selected for further study.

[3] = system: Streptococcus pyogenes M1T1
Text: as §1, §2, §3

[4] = system: sheep red blood cells (RBCs); settings: compared to the PBS control
Experimental: For hemolysis assays, 100 μL of sheep red blood cells (RBCs) were washed three times in cold PBS (Thermo Fischer). Washed cells were resuspended in 25 mL of PBS. Triton, PBS, or peptide in 10% DMSO/PBS were added to 180 μL of resuspended RBCs and incubated at 37° C. for 1 h. Samples were read at 450 nm. Data was expressed as percent hemolysis by relativizing to the Triton and PBS controls.

CC[C@H](C)[C@H](NC(=O)[C@H](CCCCN)NC(=O)[C@H](CC(N)=O)NC(=O)[C@H](CCCCN)NC(=O)[C@H](CC(C)C)NC(=O)[C@H](Cc1ccc(O)cc1)NC(=O)[C@H](CCC(N)=O)NC(=O)[C@H](CCCNC(=N)N)NC(=O)[C@@H](NC(=O)[C@@H](NC(=O)[C@H](CCCCN)NC(=O)[C@H](CCCCN)NC(=O)[C@H](Cc1c[nH]c2ccccc12)NC(=O)[C@H](C)N)[C@@H](C)O)[C@@H](C)CC)C(=O)N[C@@H](CCCCN)C(=O)N[C@@H](CCCCN)C(=O)N[C@@H](CCCCN)C(=O)NCC(=O)N[C@@H](CCCNC(=N)N)C(=O)N[C@@H](CCCCN)C(=O)N[C@@H](C)C(=O)N[C@H](C(=O)N[C@H](C(=O)N[C@@H](C)C(=O)N[C@@H](Cc1c[nH]c2ccccc12)C(=O)O)[C@@H](C)CC)C(C)C [Peptide 20] (H-AWKKTIRQYLKNKIKKKGRKAVIAW-OH)
MIC E. coli [1]: 8 µM (≈ 24.5 µg/mL)
MIC P. aeruginosa [2]: 10 µM
MIC S. pyogenes [3]: 8 µM
hemolysis of library peptides [4]: no significant changes in hemolysis

CC[C@H](C)[C@H](NC(=O)[C@H](CCCCN)NC(=O)[C@H](CC(N)=O)NC(=O)[C@H](CCCCN)NC(=O)[C@H](CC(C)C)NC(=O)[C@H](Cc1ccc(O)cc1)NC(=O)[C@H](CCC(N)=O)NC(=O)[C@H](CCCNC(=N)N)NC(=O)[C@@H](NC(=O)[C@@H](NC(=O)[C@H](CCCCN)NC(=O)[C@H](CCCCN)NC(=O)CNC(=O)[C@H](C)N)[C@@H](C)O)[C@@H](C)CC)C(=O)N[C@@H](CCCCN)C(=O)N[C@@H](CCCCN)C(=O)N[C@@H](CCCCN)C(=O)N[C@@H](Cc1c[nH]c2ccccc12)C(=O)N[C@@H](CCCNC(=N)N)C(=O)N[C@@H](CCCCN)C(=O)N[C@@H](C)C(=O)N[C@H](C(=O)N[C@H](C(=O)N[C@@H](C)C(=O)N[C@@H](Cc1c[nH]c2ccccc12)C(=O)O)[C@@H](C)CC)C(C)C [Peptide 52] (H-AGKKTIRQYLKNKIKKKWRKAVIAW-OH)
MIC E. coli [1]: 8 µM (≈ 24.5 µg/mL)
MIC P. aeruginosa [2]: 10 µM
MIC S. pyogenes [3]: 8 µM
hemolysis of library peptides [4]: low levels of hemolysis at higher concentrations

CC[C@H](C)[C@H](NC(=O)[C@H](CCCCN)NC(=O)[C@H](CC(N)=O)NC(=O)[C@H](CCCCN)NC(=O)[C@H](CC(C)C)NC(=O)[C@H](Cc1ccc(O)cc1)NC(=O)[C@H](CCC(N)=O)NC(=O)[C@H](CCCNC(=N)N)NC(=O)[C@@H](NC(=O)[C@@H](NC(=O)[C@H](CCCCN)NC(=O)[C@H](CCCCN)NC(=O)CNC(=O)[C@H](C)N)[C@@H](C)O)[C@@H](C)CC)C(=O)N[C@@H](CCCCN)C(=O)N[C@@H](CCCCN)C(=O)N[C@@H](CCCCN)C(=O)NCC(=O)N[C@@H](CCCNC(=N)N)C(=O)N[C@@H](CCCCN)C(=O)N[C@@H](Cc1c[nH]c2ccccc12)C(=O)N[C@H](C(=O)N[C@H](C(=O)N[C@@H](C)C(=O)N[C@@H](Cc1c[nH]c2ccccc12)C(=O)O)[C@@H](C)CC)C(C)C [Peptide 60] (H-AGKKTIRQYLKNKIKKKGRKWVIAW-OH)
hemolysis of library peptides [4]: no significant changes in hemolysis

CC[C@H](C)[C@H](NC(=O)[C@H](CCC(=O)O)NC(=O)[C@H](CC(N)=O)NC(=O)[C@H](CCCCN)NC(=O)[C@H](CC(C)C)NC(=O)[C@H](Cc1ccc(O)cc1)NC(=O)[C@H](CCC(N)=O)NC(=O)[C@H](CCCNC(=N)N)NC(=O)[C@@H](NC(=O)[C@@H](NC(=O)[C@H](CCCCN)NC(=O)[C@H](CCCCN)NC(=O)[C@H](Cc1c[nH]c2ccccc12)NC(=O)[C@H](C)N)[C@@H](C)O)[C@@H](C)CC)C(=O)N[C@@H](CCCCN)C(=O)N[C@@H](CCCCN)C(=O)N[C@@H](CCCCN)C(=O)N[C@@H](Cc1c[nH]c2ccccc12)C(=O)N[C@@H](CCCNC(=N)N)C(=O)N[C@@H](CCCCN)C(=O)N[C@@H](C)C(=O)N[C@H](C(=O)N[C@H](C(=O)N[C@@H](C)C(=O)N[C@@H](Cc1c[nH]c2ccccc12)C(=O)O)[C@@H](C)CC)C(C)C [Peptide 90] (H-AWKKTIRQYLKNEIKKKWRKAVIAW-OH)
MIC E. coli [1]: 2 µM (≈ 6.37 µg/mL)
MIC S. pyogenes [3]: 8 µM
hemolysis of library peptides [4]: low levels of hemolysis at higher concentrations

CC[C@H](C)[C@H](NC(=O)[C@H](CCCCN)NC(=O)[C@H](CC(N)=O)NC(=O)[C@H](CCCCN)NC(=O)[C@H](CC(C)C)NC(=O)[C@H](Cc1ccc(O)cc1)NC(=O)[C@H](CCC(N)=O)NC(=O)[C@H](CCCNC(=N)N)NC(=O)[C@@H](NC(=O)[C@@H](NC(=O)[C@H](CCC(=O)O)NC(=O)[C@H](CCCCN)NC(=O)[C@H](Cc1c[nH]c2ccccc12)NC(=O)[C@H](C)N)[C@@H](C)O)[C@@H](C)CC)C(=O)N[C@@H](CCCCN)C(=O)N[C@@H](CCCCN)C(=O)N[C@@H](CCCCN)C(=O)N[C@@H](Cc1c[nH]c2ccccc12)C(=O)N[C@@H](CCCNC(=N)N)C(=O)N[C@@H](CCCCN)C(=O)N[C@@H](C)C(=O)N[C@H](C(=O)N[C@H](C(=O)N[C@@H](C)C(=O)N[C@@H](Cc1c[nH]c2ccccc12)C(=O)O)[C@@H](C)CC)C(C)C [Peptide 91] (H-AWKETIRQYLKNKIKKKWRKAVIAW-OH)
MIC E. coli [1]: 2 µM (≈ 6.37 µg/mL)
MIC S. pyogenes [3]: 10 µM
hemolysis of library peptides [4]: low levels of hemolysis at higher concentrations

CC[C@H](C)[C@H](NC(=O)[C@H](CCCCN)NC(=O)[C@H](CC(N)=O)NC(=O)[C@H](CCCCN)NC(=O)[C@H](CC(C)C)NC(=O)[C@H](Cc1ccc(O)cc1)NC(=O)[C@H](CCC(N)=O)NC(=O)[C@H](CCCNC(=N)N)NC(=O)[C@@H](NC(=O)[C@@H](NC(=O)[C@H](CCCCN)NC(=O)[C@H](CCCCN)NC(=O)[C@H](Cc1c[nH]c2ccccc12)NC(=O)[C@H](C)N)[C@@H](C)O)[C@@H](C)CC)C(=O)N[C@@H](CCCCN)C(=O)N[C@@H](CCCCN)C(=O)N[C@@H](CCCCN)C(=O)N[C@@H](Cc1c[nH]c2ccccc12)C(=O)N[C@@H](CCCNC(=N)N)C(=O)N[C@@H](CCCCN)C(=O)N[C@@H](C)C(=O)N[C@H](C(=O)N[C@H](C(=O)N[C@@H](C)C(=O)N[C@@H](Cc1c[nH]c2ccccc12)C(=O)O)[C@@H](C)CC)C(C)C [Peptide 92] (H-AWKKTIRQYLKNKIKKKWRKAVIAW-OH)
MIC E. coli [1]: 4 µM (≈ 12.7 µg/mL)
MIC S. pyogenes [3]: 8 µM
hemolysis of library peptides [4]: no significant changes in hemolysis

CC[C@H](C)[C@H](NC(=O)[C@H](CCCCN)NC(=O)[C@H](CCC(=O)O)NC(=O)[C@H](CCCCN)NC(=O)[C@H](Cc1c[nH]c2ccccc12)NC(=O)[C@H](C)N)C(=O)N[C@@H](CCCNC(=N)N)C(=O)N[C@@H](CCC(N)=O)C(=O)N[C@@H](Cc1ccc(O)cc1)C(=O)N[C@@H](CC(C)C)C(=O)N[C@@H](CCCCN)C(=O)N[C@@H](CC(N)=O)C(=O)N[C@@H](CCC(=O)O)C(=O)N[C@H](C(=O)N[C@@H](CCCCN)C(=O)N[C@@H](CCCCN)C(=O)N[C@@H](CCCCN)C(=O)N[C@@H](Cc1c[nH]c2ccccc12)C(=O)N[C@@H](CCCNC(=N)N)C(=O)N[C@@H](CCCCN)C(=O)N[C@@H](C)C(=O)N[C@H](C(=O)N[C@H](C(=O)N[C@@H](C)C(=O)N[C@@H](Cc1c[nH]c2ccccc12)C(=O)O)[C@@H](C)CC)C(C)C)[C@@H](C)CC [Peptide 93] (H-AWKEKIRQYLKNEIKKKWRKAVIAW-OH)
MIC E. coli [1]: 1 µM (≈ 3.21 µg/mL)
MIC S. pyogenes [3]: 8 µM
hemolysis of library peptides [4]: low levels of hemolysis at higher concentrations
